# Earlier results, collected in paper PMC7643960 (PLoS ONE, 2020).
# System: healthy horses
# Conditions: 1% NVX-207 twice a day for seven consecutive days, eight healthy horses; cited from earlier work
compound,measurement,value
"C=C(C)[C@@H]1CC[C@]2(C(=O)O)CC[C@]3(C)[C@H](CC[C@@H]4[C@@]5(C)CC[C@H](O)C(C)(C)[C@@H]5CC[C@]43C)[C@@H]12 [betulinic acid, reference compound]",tolerability after topical application,no compound-related local adverse effects
